Results reported in patent publication US5068465A, “Pharmaceutically active 3-aryl-2-fluoro-1-olefins” (Merrell Dow Pharmaceuticals Inc., priority 1990, dated 1991).

Key:
[1] = system: dopamine beta-hydroxylase (DBH); assay: time-dependent DBH inhibitory activity (tyramine conversion followed by oxygen uptake, polarographic electrode); type: biochemical; conditions: Concentration 12.9 mM; pH about 5; about 37° C.; ascorbate; tyramine substrate; 0.989 correlation
Experimental: The compounds of this invention are useful as dopamine beta-hydroxylase inhibitors for the treatment of, for instance, hypertension. The dopamine beta-hydroxylase (DBH) inhibitory properties of the compounds of this invention can readily be determined by standard and well known procedures. […] The test compound is added at the desired concentration, and the system is incubated. At different time intervals, tyramine, a substrate of DBH, is introduced to aliquots of the incubated enzyme solution and DBH activity is measured by the method of S. May, et al, J. Biol. Chem. 256, 2258 (1981), where the enzyme-activated conversion of tyramine is followed by monitoring oxygen uptake by means of a polarographic electrode and an oxygen monitor, to determine the level of DBH activity.

[2] = system: DBH; conditions: J. Biol. Chem., 259, No. 11, 6925 (1984); cited from earlier work
[3] = system: monoamine oxidase; conditions: J. Med. Chem., 27, 9 (1984); cited from earlier work

| SMILES | mechanism-based inhibitors of DBH [2] | also measured |
| --- | --- | --- |
| C=C(F)Cc1ccc(O)cc1 [3-(4-Hydroxyphenyl)-2-Fluoro-1-Propene] | – | t 1/2: time required to reach 50% log activity [1]: 5 min. |
| C=C(Cl)Cc1ccc(O)cc1 [2-chloro-3-(4-hydroxyphenyl)-1-propene] | mechanism-based inhibitors of DBH | – |
| C=C(Br)Cc1ccc(O)cc1 [2-bromo-3-(4-hydroxyphenyl)-1-propene] | mechanism-based inhibitors of DBH | – |
| COc1ccc(C(=CF)CN)cc1OC [2-(3,4-dimethoxyphenyl)-3-fluoroallylamine] | – | active as a monoamine oxidase inhibitor [3]: active as a monoamine oxidase inhibitor |
